Experimental data: the supplement of paper PMC11061612

Key:
[1] = compound: C1CC(C1)(C(=O)[O-])C(=O)[O-].N.N.[Pt+2] [Carboplatin]; conditions: max 10 µM
Summary of the method: (§1)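 Cancer cell lines were dosed for 72 hours (final DMSO typically 0.2%) after 24 hours at 37°C and 5% CO2 in 1536-well plates containing 7.5 μl DMEM/F12 or RPMI with 10% FBS. Viability came from CellTiter-Glo 2.0 luminescence, scaled between blank-well and DMSO-well means, and dose responses were fitted to a two-parameter logistic curve with a non-linear mixed effects model. The single-agent IC50 was obtained from this fit.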

[2] = compound: C1CN(CCC1(C(=O)N[C@@H](CCO)C2=CC=C(C=C2)Cl)N)C3=NC=NC4=C3C=CN4 [AZD5363]; conditions: max 10 µM
Summary of the method: as §1

[3] = compound: C=CCn1c(=O)c2cnc(Nc3ccc(N4CCN(C)CC4)cc3)nc2n1-c1cccc(C(C)(C)O)n1 [AZD1775]; conditions: max 3 µM
Summary of the method: as §1

[4] = compound: CC(=O)Nc1cccc(-n2c(=O)n(C3CC3)c(=O)c3c(Nc4ccc(I)cc4F)n(C)c(=O)c(C)c32)c1 [Trametinib]; conditions: max 1 µM
Summary of the method: as §1

[5] = compound: CC(=O)O[C@H]1C(=O)[C@@]2(C)[C@H]([C@H](OC(=O)c3ccccc3)[C@]3(O)C[C@H](OC(=O)[C@H](O)[C@@H](NC(=O)c4ccccc4)c4ccccc4)C(C)=C1C3(C)C)[C@]1(OC(C)=O)CO[C@@H]1C[C@@H]2O [Paclitaxel]; conditions: max 3 µM
Summary of the method: as §1

[6] = compound: CC(=O)c1c(C)c2cnc(Nc3ccc(N4CCNCC4)cn3)nc2n(C2CCCC2)c1=O [Palbociclib]; conditions: max 10 µM
Summary of the method: as §1

[7] = compound: CC(C)n1c(=O)n(C)c2cnc3cc(F)c(-c4ccc(OCCCN5CCCCC5)nc4)cc3c21 [AZD1390]; conditions: max 0.3 µM
Summary of the method: as §1

[8] = compound: CC1(C)CCC(CN2CCN(c3ccc(C(=O)NS(=O)(=O)c4ccc(NCC5CCOCC5)c([N+](=O)[O-])c4)c(Oc4cnc5[nH]ccc5c4)c3)CC2)=C(c2ccc(Cl)cc2)C1 [Venetoclax]; conditions: max 1 µM
Summary of the method: as §1

[9] = compound: CC1=C(C(=CC=C1)Cl)NC(=O)C2=CN=C(S2)NC3=CC(=NC(=N3)C)N4CCN(CC4)CCO [Dasatinib]; conditions: max 2 µM
Summary of the method: as §1

[10] = compound: CC1=CN2[C@@H](C1)C=NC3=CC(=C(C=C3C2=O)OC)OCCCCCOC4=C(C=C5C(=C4)N=C[C@@H]6CC(=CN6C5=O)C)OC [SG3199]; conditions: max 0.001 µM
Summary of the method: as §1

[11] = compound: CCN(CCO)CCCOc1ccc2c(Nc3cc(CC(=O)Nc4cccc(F)c4)[nH]n3)ncnc2c1 [AZD2811]; conditions: max 1 µM
Summary of the method: as §1

[12] = compound: CCc1c2c(nc3ccc(O)cc13)-c1cc3c(c(=O)n1C2)COC(=O)[C@]3(O)CC [SN-38]; conditions: max 0.3 µM
Summary of the method: as §1

[13] = compound: CN(C)CCCOc1ccc(-c2ccc3ncc4c(c3c2)n(C2CCOCC2)c(=O)n4C)cn1 [AZD0156]; conditions: max 3 µM
Summary of the method: as §1

[14] = compound: CN(CC[C@H](CSC1=CC=CC=C1)NC2=C(C=C(C=C2)S(=O)(=O)NC(=O)C3=CC=C(C=C3)N4CCC(CC4)[C@H](C5=CC=CC=C5C6=CC=C(C=C6)Cl)O)S(=O)(=O)C(F)(F)F)CCO [AZD4320]; conditions: max 1 µM
Summary of the method: as §1

[15] = compound: COc1cc(Nc2ncc3c(n2)-c2ccc(Cl)cc2C(c2c(F)cccc2OC)=NC3)ccc1C(=O)O [Alisertib]; conditions: max 10 µM
Summary of the method: as §1

[16] = compound: COc1cc([C@@H]2c3cc4c(cc3[C@@H](O[C@@H]3O[C@@H]5CO[C@@H](C)O[C@H]5[C@H](O)[C@H]3O)[C@H]3COC(=O)[C@H]23)OCO4)cc(OC)c1O [Etoposide]; conditions: max 10 µM
Summary of the method: as §1

[17] = compound: COc1cc2ncnc(Nc3ccc(F)c(Cl)c3)c2cc1OCCCN1CCOCC1 [Gefitinib]; conditions: max 10 µM
Summary of the method: as §1

[18] = compound: COc1cccc(OCCCN)c1-c1cc(Nc2cnc(C#N)cn2)n[nH]1 [Prexasertib]; conditions: max 1 µM
Summary of the method: as §1

[19] = compound: COc1cccc2c1C(=O)c1c(O)c3c(c(O)c1C2=O)C[C@@](O)(C(=O)CO)C[C@@H]3O[C@H]1C[C@H](N)[C@H](O)[C@H](C)O1 [Doxorubicin]; conditions: max 1 µM
Summary of the method: as §1

[20] = compound: COc1nnc2ccc(N3CCC(c4ccc(OCCN5CCN(C)C(=O)[C@H]5C)cc4)CC3)nn12 [AZD5153]; conditions: max 1 µM
Summary of the method: as §1

[21] = compound: CS(=O)(=O)CCNCc1ccc(-c2ccc3ncnc(Nc4ccc(OCc5cccc(F)c5)c(Cl)c4)c3c2)o1 [Lapatinib]; conditions: max 10 µM
Summary of the method: as §1

[22] = compound: C[C@@H](Nc1cc(F)cc(F)c1)c1cc(C(=O)N(C)C)cc2c(=O)cc(N3CCOCC3)oc12 [AZD8186]; conditions: max 10 µM
Summary of the method: as §1

[23] = compound: C[C@@H](Oc1cc(-c2cnn(C3CCNCC3)c2)cnc1N)c1c(Cl)ccc(F)c1Cl [Crizotinib]; conditions: max 10 µM
Summary of the method: as §1

[24] = compound: C[C@@H](c1ccc2nccn2c1)n1nnc2ncc(-c3cnn(C)c3)nc21 [Savolitinib]; conditions: max 1 µM
Summary of the method: as §1

[25] = compound: C[C@@H]1COCCN1C2=NC(=NC(=C2)C3(CC3)[S@](=N)(=O)C)C4=C5C=CNC5=NC=C4 [AZD6738]; conditions: max 10 µM
Summary of the method: as §1

[26] = compound: Cc1c2c(nn1C)CSCc1cc(n(C)n1)CSc1cc(c3ccccc3c1)OCCCc1c(C(=O)O)n(C)c3c-2c(Cl)ccc13 [AZD5991]; conditions: max 1 µM
Summary of the method: as §1

[27] = compound: Cc1cc2ncnn2cc1Nc1ncc2c(n1)n(C1CCOCC1)c(=O)n2C [AZD7648]; conditions: max 10 µM
Summary of the method: as §1

[28] = compound: Cc1nc(-c2cn3c(n2)-c2ccc(-c4cnn(C(C)(C)C(N)=O)c4)cc2OCC3)n(C(C)C)n1 [Taselisib]; conditions: max 10 µM
Summary of the method: as §1

[29] = compound: Cn1cnc2c(F)c(Nc3ccc(Br)cc3Cl)c(C(=O)NOCCO)cc21 [Selumetinib]; conditions: max 10 µM
Summary of the method: as §1

[30] = compound: N#Cc1cnc(Nc2cc(NC[C@H]3CNCCO3)c(C(F)(F)F)cn2)cn1 [SRA737]; conditions: max 10 µM
Summary of the method: as §1

[31] = compound: NC1(c2ccc(-c3nc4ccn5c(=O)[nH]nc5c4cc3-c3ccccc3)cc2)CCC1 [MK-2206]; conditions: max 10 µM
Summary of the method: as §1

[32] = compound: Nc1ccn([C@@H]2O[C@H](CO)[C@@H](O)C2(F)F)c(=O)n1 [Gemcitabine]; conditions: max 0.3 µM
Summary of the method: as §1

[33] = compound: O=C(Nc1ccc2[nH]nc(-c3ccncc3)c2c1)[C@@H]1CCN(CC(=O)N2CCN(c3ccc(-c4ncccn4)cc3)CC2)C1; conditions: max 5 µM
Summary of the method: as §1

[34] = compound: O=C(c1cc(Cc2n[nH]c(=O)c3ccccc23)ccc1F)N1CCN(C(=O)C2CC2)CC1 [Olaparib]; conditions: max 10 µM
Summary of the method: as §1

[35] = compound: O=c1[nH]cc(F)c(=O)[nH]1 [5-Fluorouracil]; conditions: max 20 µM
Summary of the method: as §1

Cell Line	IC50, cell viability 72 h [1]	IC50, cell viability 72 h [2]	IC50, cell viability 72 h [3]	IC50, cell viability 72 h [4]	IC50, cell viability 72 h [5]	IC50, cell viability 72 h [6]	IC50, cell viability 72 h [7]	IC50, cell viability 72 h [8]	IC50, cell viability 72 h [9]	IC50, cell viability 72 h [10]	IC50, cell viability 72 h [11]	IC50, cell viability 72 h [12]	IC50, cell viability 72 h [13]	IC50, cell viability 72 h [14]	IC50, cell viability 72 h [15]	IC50, cell viability 72 h [16]	IC50, cell viability 72 h [17]	IC50, cell viability 72 h [18]	IC50, cell viability 72 h [19]	IC50, cell viability 72 h [20]	IC50, cell viability 72 h [21]	IC50, cell viability 72 h [22]	IC50, cell viability 72 h [23]	IC50, cell viability 72 h [24]	IC50, cell viability 72 h [25]	IC50, cell viability 72 h [26]	IC50, cell viability 72 h [27]	IC50, cell viability 72 h [28]	IC50, cell viability 72 h [29]	IC50, cell viability 72 h [30]	IC50, cell viability 72 h [31]	IC50, cell viability 72 h [32]	IC50, cell viability 72 h [33]	IC50, cell viability 72 h [34]	IC50, cell viability 72 h [35]
GAMG (Glioblastoma)	> 10000 nM	8420 nM	1690 nM	> 1000 nM	7.35 nM	> 10000 nM	> 300 nM	> 1000 nM	1710 nM	> 1 nM	> 1000 nM	55.5 nM	> 3000 nM	> 1000 nM	2460 nM	4440 nM	> 10000 nM	82.9 nM	237 nM	> 1000 nM	> 10000 nM	2980 nM	> 10000 nM	> 1000 nM	> 10000 nM	> 1000 nM	> 10000 nM	3590 nM	> 10000 nM	> 10000 nM	> 10000 nM	88.1 nM	> 5000 nM	> 10000 nM	> 20000 nM
HH (T-Cell Non-Hodgkin's Lymphoma)	> 10000 nM	> 10000 nM	> 3000 nM	> 1000 nM	> 3000 nM	> 10000 nM	> 300 nM	> 1000 nM	> 2000 nM	> 1 nM	> 1000 nM	> 300 nM	> 3000 nM	> 1000 nM	> 10000 nM	> 10000 nM	> 10000 nM	186 nM	> 1000 nM	> 1000 nM	> 10000 nM	> 10000 nM	> 10000 nM	> 1000 nM	> 10000 nM	341 nM	> 10000 nM	> 10000 nM	> 10000 nM	> 10000 nM	> 10000 nM	> 300 nM	> 5000 nM	> 10000 nM	> 20000 nM
HuCCT1 (Biliary Tract Carcinoma)	> 10000 nM	> 10000 nM	583 nM	314 nM	294 nM	> 10000 nM	> 300 nM	> 1000 nM	918 nM	> 1 nM	> 1000 nM	184 nM	> 3000 nM	> 1000 nM	> 10000 nM	> 10000 nM	> 10000 nM	35.4 nM	710 nM	780 nM	> 10000 nM	> 10000 nM	> 10000 nM	> 1000 nM	4360 nM	> 1000 nM	> 10000 nM	> 10000 nM	6720 nM	6750 nM	> 10000 nM	> 300 nM	1790 nM	> 10000 nM	> 20000 nM
KS-1 (Glioblastoma)	> 10000 nM	> 10000 nM	> 3000 nM	927 nM	375 nM	> 10000 nM	> 300 nM	> 1000 nM	> 2000 nM	> 1 nM	> 1000 nM	> 300 nM	> 3000 nM	> 1000 nM	3510 nM	> 10000 nM	> 10000 nM	539 nM	> 1000 nM	264 nM	> 10000 nM	> 10000 nM	> 10000 nM	> 1000 nM	> 10000 nM	> 1000 nM	> 10000 nM	3460 nM	> 10000 nM	> 10000 nM	> 10000 nM	> 300 nM	> 5000 nM	> 10000 nM	> 20000 nM
KYAE-1 (Esophageal Adenocarcinoma)	> 10000 nM	> 10000 nM	> 3000 nM	> 1000 nM	> 3000 nM	> 10000 nM	> 300 nM	> 1000 nM	> 2000 nM	> 1 nM	> 1000 nM	> 300 nM	> 3000 nM	> 1000 nM	> 10000 nM	> 10000 nM	4580 nM	829 nM	> 1000 nM	> 1000 nM	3340 nM	> 10000 nM	> 10000 nM	> 1000 nM	> 10000 nM	> 1000 nM	> 10000 nM	1880 nM	> 10000 nM	> 10000 nM	> 10000 nM	> 300 nM	> 5000 nM	> 10000 nM	> 20000 nM
LS-123 (Colorectal Carcinoma)	> 10000 nM	> 10000 nM	2920 nM	395 nM	1210 nM	> 10000 nM	> 300 nM	> 1000 nM	557 nM	> 1 nM	> 1000 nM	> 300 nM	> 3000 nM	–	> 10000 nM	> 10000 nM	> 10000 nM	96.4 nM	611 nM	> 1000 nM	> 10000 nM	> 10000 nM	> 10000 nM	> 1000 nM	> 10000 nM	> 1000 nM	> 10000 nM	1940 nM	> 10000 nM	> 10000 nM	> 10000 nM	> 300 nM	2730 nM	> 10000 nM	> 20000 nM
